Entries after “also recorded” stand apart in the source; their conditions may differ.
How the values were obtained:
[1] = tested on: HIF-1 (HIF-dependent luciferase reporter, U2OS-HRE-luc cells); assay: HIF-1-dependent luciferase reporter assay, U2OS-HRE-luc; format: cell-based, human
Description: (§1) The ability of P1–P3 to disrupt HIF-1 function in cells was assessed using a HIF-1-dependent luciferase reporter assay.[15],[21] The assay uses human osteosarcoma U2OS cells, stably transfected with a HIF-dependent luciferase reporter construct (U2OS-HRE-luc), where activation of HIF results in an increase in luciferase expression.[15]
(§2) Endogenous HIF-1 luciferase reporter assays were conducted as previously reported in U2OS-HRE-luc[15] and MCF-7 cells.[46] For plasmid-expressed HIF-α luciferase reporter assays, MCF-7 and U2OS cells were transiently transfected with plasmids expressing HIF-1α, HIF-2α, or a blank control (pcDNA3.1-HIF-1α, pcDNA3.1-HIF-2α, or pcDNA3.1), a renilla-encoding control (phRL-TK), and a HIF-dependent firefly luciferase reporter construct (pGL2-TK-HRE), using Transfast (Promega) according to the manufacturer’s instructions. After 24 h, cells were recovered and plated (4000 cells/well) in 96-well plates (Perkin-Elmer) and incubated for 5 h before either hypoxic or aerobic incubation in presence or absence of cyclic peptide inhibitors. Firefly and renilla activities were determined using Dual-Glo Reagent (Promega) according to the manufacturer’s instructions. The luciferase signal was normalized using the corresponding renilla values.
Cells were treated with the stated concentrations of inhibitor (P1, P2, or P3) and incubated in normoxia for 4 h, followed by incubation in a hypoxic environment. All manipulation of cell pellets (e.g., lysis, mRNA, and protein extraction) was conducted in a hypoxic environment.

[2] = tested on: HIF-1 (HIF-dependent luciferase reporter, MCF-7 breast cancer cells); assay: HIF-1-dependent luciferase reporter assay, MCF-7; format: cell-based; settings: MCF-7, 100 μM
Description: as §1
as §2, with “values. […]” for “values.”

[3] = tested on: HIF-2 (HIF-dependent luciferase reporter, MCF-7 cells); assay: HIF-2 luciferase reporter assay, MCF-7; format: cell-based; settings: MCF-7, transfected HIF-2α
Description: (§3) In addition, P1 had no effect on VEGF protein levels in hypoxic 786-O cells (Figure 6B). To further probe the effect of P1 on HIF-2, a luciferase reporter assay was developed and used. The assay was derived from the HIF-1 luciferase reporter assay detailed above (Figure 2C and D) and adapted for HIF-2 by replacing the plasmid encoding HIF-1α with the equivalent plasmid encoding HIF-2α. […] P2 and P3 also had no effect on HIF-2 in this assay (Figure S9).
as §2

[4] = tested on: HIF-2 (HIF-dependent luciferase reporter, U2OS cells); assay: HIF-2 luciferase reporter assay, U2OS; format: cell-based, human; settings: transfected HIF-2α
Description: as §3, §2

[5] = tested on: U2OS-luc control cell line stably expressing luciferase; assay: Control constitutive luciferase reporter, U2OS-luc; format: cell-based, human
Description: Figure S3: Identification of cyclic peptide HIF-1 inhibitors. (A) SICLOPPS expression is induced by arabinose, which processes to give a member of the cyclic peptide library. A dimerization inhibitor would be expected to rescue growth of the HIF-1 RTHS on selective media plates containing IPTG, kanamycin and 3-amino-triazole, and arabinose. (B) The ability of the selected cyclic peptides to […]
HIF-1 RTHS containing the corresponding SICLOPPS plasmid onto selective media. In the absence of arabinose the SICLOPPS split-intein is not produced; the HIF-1 RTHS containing plasmids encoding […]
colonies show survival on selective media plates containing IPTG and arabinose (panel 2). Expressing the 3 selected cyclic peptides from mutant SICLOPPS inteins (H24A, F26A mutations in the C- […]
cyclic form of the peptides and their activity. […]
expressing a constitutive luciferase reporter construct. […]

[6] = tested on: HIF-1α/HIF-1β protein–protein interaction; assay: HIF-1 bacterial reverse two-hybrid system (RTHS), SICLOPPS-expressed cyclic peptides, drop-spotting; format: cell-based; settings: E. coli HIF-1 RTHS, cyclic peptide expressed from SICLOPPS plasmid, 10-fold serial dilutions, compared with the other potential inhibitors
Description: We used our genetically encoded high-throughput screening platform[23]−[25] to identify inhibitors of the HIF-1α/HIF-1β protein–protein interaction. We built and verified the function of a HIF-1 bacterial reverse two-hybrid system (RTHS, for a detailed description see the Supporting Information and Figures S1–S3). The HIF-1 RTHS was used to screen a plasmid-encoded SICLOPPS (split intein circular ligation of peptides and proteins)[26],[27] library of 3.2 million cyclic hexapeptides for HIF-1 dimerization inhibitors.
After the first round of screening, 120 surviving colonies were observed and subjected to several rounds of secondary screening to eliminate false positives and nonselective inhibitors, leaving 12 potential HIF-1 dimerization inhibitors that were ranked by drop-spotting.
The HIF-1 RTHS, associated control RTHS, and SICLOPPS library were constructed as detailed in the Supporting Information. Electrocompetent cells of the HIF-1 RTHS were prepared and transformed with the C+5 SICLOPPS plasmid library. Transformation efficiency, assessed by plating 10-fold serial dilutions of the recovery solution on LB agar supplemented with chloramphenicol (35 μg/mL), was consistently found to be ∼5 × 10^7, thus ensuring adequate coverage of the 3.2 × 10^6 member cyclic peptide library. Transformants were washed with minimal media and plated onto minimal media agar plates supplemented with ampicillin (50 μg/mL), spectinomycin (25 μg/mL), kanamycin (50 μg/mL), 3-AT (7.5 μM), IPTG (100 μM), L-arabinose (6.5 μM), and chloramphenicol (35 μg/mL). The plates were incubated for 2–3 days at 37 °C until individual colonies were visible. Colonies were picked and restreaked onto LB agar plates containing ampicillin (50 μg/mL), spectinomycin (25 μg/mL), and chloramphenicol (35 μg/mL) and incubated overnight at 37 °C.
Surviving colonies from these plates were grown overnight and assessed by drop-spotting 10-fold serial dilutions onto minimal media plates, supplemented with antibiotics, IPTG and 3-AT as above, with and without 6.5 μM L-arabinose. […]

MCF-7 cells = assay: CyQUANT cell proliferation assay, MCF-7; format: cell-based; settings: 1 μM, positive control, 72 h
Description: Sulforhodamine B cytotoxicity assay […]
incubated in hypoxia for 24h.
O.D. value of the experimental set.
CyQUANT cell proliferation assay
The cells were incubated for 5 hours and then treated with Tamoxifen or P1. After 24, 48 or 72 hours, the media was […]
C35006) following the manufacturers instructions. Fluorescence measurements were […]
Workman, P.; Ashcroft, M. Cancer Res 2005, 65, 4918.

His-HIF-1α1–350 = assay: Fluorescent binding assay, HIF-1α; settings: fluorescence at 680 nm, Ni2+-coated plate, 5 µL of 100 µM solution in 95 µL buffer, 1 hour, room temperature
PAS-B domain of HIF-1α = molecular target: T1, PAS-B domain of HIF-1α (Homo sapiens, UniProt Q16665); assay: Fluorescent binding assay, PAS-B; settings: fluorescence at 680 nm, Ni2+-coated plate
T1 construct: Per-ARNT-Sim-B (PAS-B, amino acids 235–350) domains; His (N); made in house; host or cells: E. coli BL21(DE3)

bHLH domain of HIF-1α = assay: Fluorescent binding assay, bHLH; settings: fluorescence at 680 nm, Ni2+-coated plate
His-HIF-2α1–351 = assay: Fluorescent binding assay, HIF-2α; settings: fluorescence at 680 nm, Ni2+-coated plate, 5 µL of 100 µM solution in 95 µL buffer, 1 hour, room temperature
PAS-A domain of HIF-1α = assay: Fluorescent binding assay, PAS-A; settings: fluorescence at 680 nm, Ni2+-coated plate

T1 sequence (Q16665 235-350): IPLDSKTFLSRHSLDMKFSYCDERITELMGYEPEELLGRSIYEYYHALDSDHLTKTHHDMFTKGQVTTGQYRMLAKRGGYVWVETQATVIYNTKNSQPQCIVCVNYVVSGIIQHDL

## CGRKKRRQRRRPPQ [Tat-tag, Tat-tag alone, control, reference compound]
[1]; U2OS, 100 μM
  effect on luciferase signal, Tat-tag alone: did not affect the luciferase signal
[2]
  effect on luciferase signal, Tat-tag alone: did not affect the luciferase signal

## Tat-cyclo-CLLRMY (head to tail) [P3, cyclo-CLLRMY tagged with Tat peptide via a disulfide bond]
[3]
  effect on HIF-2 luciferase reporter signal: do not affect
[4]
  effect on HIF-2 luciferase reporter signal: do not affect
[1]; U2OS-HRE-luc, hypoxia (1% O2)
  effect on luciferase reporter in hypoxia: did not show an effect
[1]; U2OS-HRE-luc, normoxia
  effect on luciferase reporter in normoxia (basal): did not show an effect
[5]
  effect on constitutive luciferase signal: do not affect

## cyclo-CRLMVL (head to tail)
[6]
  activity ranking by drop-spotting in HIF-1 RTHS: significantly more active than the others

## CC/C(=C(\c1ccc(O)cc1)c1ccc(OCCN(C)C)cc1)c1ccccc1 [4-hydroxytamoxifen, reference compound]
MCF-7 cells
  proliferation of MCF-7 cells: inhibited proliferation; also recorded: arrests cell division

## cyclo-CLLRMY (head to tail)
[6]
  activity ranking by drop-spotting in HIF-1 RTHS: significantly more active than the others

## Megastokes dye 673-triazole-(cyclo-ALLFVY) (head to tail) [fluorescent derivative of cyclo-CLLFVY, propargylalanine derivative of cyclo-CLLFVY click-linked to azide-Megastoke dye 673]
His-HIF-1α1–350
  binding to His-HIF-1α1–350: observed binding
PAS-B domain of HIF-1α
  binding to PAS-B domain of HIF-1α: binds the PAS-B domain of HIF-1α
bHLH domain of HIF-1α
  binding to bHLH domain of HIF-1α: close to background level
His-HIF-2α1–351
  binding to His-HIF-2α1–351: close to background levels
PAS-A domain of HIF-1α
  binding to PAS-A domain of HIF-1α: close to background level

## cyclo-CLLFVY (head to tail)
[6]
  activity ranking by drop-spotting in HIF-1 RTHS: significantly more active than the others
